Test results: PMC4899901, “Sorokiniol: a new enzymes inhibitory metabolite from fungal endophyte Bipolaris sorokiniana LK12” (BMC Microbiology, 2016)

How the values were obtained:
Jack bean Urease = Jack bean Urease (Canavalia ensiformis, UniProt P07374); assay: indophenol urease assay (ammonia production, […] nm); format: biochemical
[1] = target: Acetyl Cholinestrase (AChE) (Electrophorus electricus, UniProt O42275); assay: Ellman assay (acetylthiocholine/DTNB, […] nm) with electric eel AChE; format: biochemical; details: read-out: EC50 (the source's name) (converted)
Acetyl Cholinestrase (AChE), sequence (O42275 24-633): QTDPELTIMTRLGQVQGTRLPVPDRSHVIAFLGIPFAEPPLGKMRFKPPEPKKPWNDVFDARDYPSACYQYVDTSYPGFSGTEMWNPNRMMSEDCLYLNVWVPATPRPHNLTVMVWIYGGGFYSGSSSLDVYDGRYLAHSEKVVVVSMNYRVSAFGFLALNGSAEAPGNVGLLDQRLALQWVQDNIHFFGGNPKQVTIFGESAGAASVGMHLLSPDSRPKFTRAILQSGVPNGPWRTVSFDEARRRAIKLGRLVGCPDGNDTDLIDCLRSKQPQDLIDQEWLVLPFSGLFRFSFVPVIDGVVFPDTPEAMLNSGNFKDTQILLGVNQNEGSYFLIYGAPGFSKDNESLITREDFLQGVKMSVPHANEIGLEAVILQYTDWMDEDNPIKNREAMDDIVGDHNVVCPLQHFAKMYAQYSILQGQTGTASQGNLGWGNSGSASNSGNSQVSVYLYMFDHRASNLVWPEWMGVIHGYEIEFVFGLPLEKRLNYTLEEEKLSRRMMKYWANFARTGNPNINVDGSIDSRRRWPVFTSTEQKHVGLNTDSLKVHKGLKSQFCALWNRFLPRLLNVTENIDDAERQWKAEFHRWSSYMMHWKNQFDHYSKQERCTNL

Jack bean Urease, sequence (P07374 whole entry, looked up): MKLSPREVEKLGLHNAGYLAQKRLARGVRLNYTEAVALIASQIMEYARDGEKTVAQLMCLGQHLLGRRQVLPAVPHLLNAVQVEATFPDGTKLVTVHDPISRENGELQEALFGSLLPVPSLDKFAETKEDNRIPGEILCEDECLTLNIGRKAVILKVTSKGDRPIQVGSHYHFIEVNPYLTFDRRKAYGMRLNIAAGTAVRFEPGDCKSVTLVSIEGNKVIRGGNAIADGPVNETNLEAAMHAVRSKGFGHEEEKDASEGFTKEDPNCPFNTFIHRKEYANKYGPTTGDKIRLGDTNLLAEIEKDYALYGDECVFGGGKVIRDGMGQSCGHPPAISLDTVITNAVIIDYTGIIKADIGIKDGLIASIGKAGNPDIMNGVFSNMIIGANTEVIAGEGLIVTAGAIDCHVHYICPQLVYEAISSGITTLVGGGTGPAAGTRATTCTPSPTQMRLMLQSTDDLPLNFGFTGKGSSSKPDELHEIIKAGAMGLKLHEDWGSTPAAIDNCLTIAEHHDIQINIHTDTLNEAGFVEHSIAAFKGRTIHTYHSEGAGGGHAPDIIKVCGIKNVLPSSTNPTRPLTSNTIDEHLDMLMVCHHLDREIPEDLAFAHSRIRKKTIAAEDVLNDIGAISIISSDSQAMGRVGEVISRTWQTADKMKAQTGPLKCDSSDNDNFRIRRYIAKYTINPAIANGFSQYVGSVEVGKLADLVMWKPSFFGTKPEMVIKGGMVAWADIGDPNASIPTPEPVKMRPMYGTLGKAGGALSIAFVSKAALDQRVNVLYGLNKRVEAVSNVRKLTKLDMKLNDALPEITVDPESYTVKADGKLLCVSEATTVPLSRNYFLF

Question: `NC(N)=S` [thiourea] was tested. Which “% Inhibition” value (Jack bean Urease) did it give?
Answer: Its value is 95 ± 1.50 % Inhibition.

Question: `CC(C)c1ccc(CCCCCCCCCCCCCCCCCO)cc1` [compound 1, sorokiniol] was tested. Which IC50 [1] did it give?
Answer: Its IC50 is 9.08 µM.
